Assay results taken from EPA's ToxRefDB 2.

How the values were obtained:
dog = conditions: Chronic toxicity, beagle, Oral, Feed, dose end: 52 week, group: systemic
rabbit = conditions: Prenatal developmental toxicity study, himalayan, Oral, Gavage/Intubation, dose end: 19 GD
mouse [1] = conditions: Subchronic oral toxicity in rodents, b6c3f1, Feed, dose end: 90 day, group: systemic
mouse [2] = conditions: Carcinogenicity, b6c3f1, Oral, Feed, dose end: 78 week, group: systemic
rat [3] = conditions: Subchronic oral toxicity in rodents, fischer, Gavage/Intubation, dose end: 14 week, group: systemic
rat [4] = conditions: Combined chronic toxicity/carcinogenicity; fischer; Oral; Gavage/Intubation; dose end: 2 year; group: systemic; systemic / pathology microscopic / kidney / hyperplasia + systemic / pathology microscopic / kidney / nephropathy + systemic / pathology …
mouse [5] = conditions: Combined chronic toxicity/carcinogenicity, b6c3f1, Oral, Gavage/Intubation, dose end: 2 year, group: systemic
mouse [6] = conditions: Subchronic oral toxicity in rodents, b6c3f1, Gavage/Intubation, dose end: 14 week, group: systemic
rat [7] = conditions: Peri- and post-natal toxicity study (Segment III), wistar, Oral, Gavage/Intubation, dose end: 21 PND
rat [8] = conditions: Prenatal developmental toxicity study, wistar, Oral, Gavage/Intubation, dose end: 15 GD
[9] = systemic / organ weight / liver / relative to body weight
[10] = systemic / organ weight / liver / relative to body weight + systemic / clinical chemistry / alanine aminotransferase (alt/sgpt) / alanine …
[11] = group: developmental, systemic / in life observation / body weight / fetal weight
[12] = group: maternal, systemic / in life observation / body weight / body weight gain + systemic / in life observation / food consumption / food consumption
[13] = group: maternal, systemic / in life observation / body weight / body weight gain + systemic / in life observation / food consumption / food consumption + …
[14] = systemic / in life observation / body weight / body weight gain
[15] = systemic / in life observation / body weight / body weight gain + systemic / organ weight / kidney / absolute
[16] = systemic / in life observation / body weight / body weight + systemic / organ weight / brain / nos + systemic / organ weight / kidney / nos
[17] = systemic / organ weight / kidney / absolute + systemic / organ weight / kidney / relative to body weight + systemic / organ weight / liver…
[18] = systemic / pathology microscopic / liver / adenoma/carcinoma combined + systemic / pathology microscopic / liver / adenoma + systemic / …
[19] = systemic / organ weight / kidney / relative to body weight + systemic / organ weight / liver / absolute
[20] = group: developmental, developmental / developmental landmark / eye opening / eye opening + developmental / developmental landmark / pinna unfolding / pinna …
[21] = group: maternal, reproductive / reproductive performance / dystocia / dystocia + reproductive / reproductive performance / fertility / fertility + …
[22] = group: offspring, systemic / in life observation / body weight / offspring (pup) weight
[23] = group: parental, systemic / in life observation / body weight / body weight + systemic / in life observation / body weight / body weight gain + systemic / in…
[24] = group: developmental, developmental / developmental malformation / bone / [other] + developmental / developmental malformation / bone / delayed ossification + …
[25] = group: maternal, reproductive / reproductive performance / implantations / implantations + systemic / in life observation / body weight / body weight gain + …

## O=C(O)c1c(Cl)ccc2cc(Cl)cnc12 [Quinclorac]
dog; [9]
  LEL: 34.5 mg/kg/day
  NEL: < 34.5 mg/kg/day
dog; [10]
  LOAEL: 469 mg/kg/day
  NOAEL: 140 mg/kg/day
rabbit; [11]
  LEL: 600 mg/kg/day
  LOAEL: 600 mg/kg/day
  NEL: 200 mg/kg/day
  NOAEL: 200 mg/kg/day
rabbit; [12]
  LEL: 200 mg/kg/day
  LOAEL: 200 mg/kg/day
rabbit; [13]
  NEL: 70 mg/kg/day
  NOAEL: 70 mg/kg/day
Mouse [1]; [14]
  LOAEL: 1000 mg/kg/day
  NOAEL: < 1000 mg/kg/day
Mouse [1]; [15]
  LEL: 1000 mg/kg/day
  NEL: < 1000 mg/kg/day
Mouse [2]; systemic / in life observation / body weight / body weight
  LOAEL: 150 mg/kg/day
Mouse [2]; [16]
  NEL: 37.5 mg/kg/day
  NOAEL: 37.5 mg/kg/day
Mouse [2]; systemic / in life observation / body weight / body weight + systemic / organ weight / kidney / nos
  LEL: 150 mg/kg/day

## C=CC(=C)CCC=C(C)C [Myrcene]
Rat [3]; [17]
  LEL: 250 mg/kg/day
  NEL: < 250 mg/kg/day
  NOAEL: 250 mg/kg/day
Rat [3]; systemic / organ weight / kidney / absolute + systemic / organ weight / kidney / relative to body weight + systemic / pathology microscopic…
  LOAEL: 500 mg/kg/day
Rat [4]
  LEL: 250 mg/kg/day
  LOAEL: 250 mg/kg/day
  NEL: < 250 mg/kg/day
  NOAEL: < 250 mg/kg/day
Mouse [5]; systemic / in life observation / body weight / body weight + systemic / pathology microscopic / liver / hypertrophy + systemic / pathology …
  LOAEL: 500 mg/kg/day
Mouse [5]; systemic / pathology microscopic / liver / adenoma/carcinoma combined + systemic / in life observation / body weight / body weight + …
  NOAEL: 250 mg/kg/day
Mouse [5]; [18]
  LEL: 250 mg/kg/day
  NEL: < 250 mg/kg/day
Mouse [6]; systemic / in life observation / body weight / body weight + systemic / in life observation / body weight / body weight gain
  LOAEL: 1000 mg/kg/day
Mouse [6]; [19]
  LEL: 250 mg/kg/day
  NEL: < 250 mg/kg/day
Mouse [6]; systemic / organ weight / liver / absolute + systemic / in life observation / body weight / body weight + systemic / in life observation / …
  NOAEL: 500 mg/kg/day
Rat [7]; [20]
  LOAEL: > 1500 mg/kg/day
  NEL: 250 mg/kg/day
  NOAEL: ≥ 1500 mg/kg/day
Rat [7]; group: developmental, developmental / developmental malformation / general / [other]
  LEL: 500 mg/kg/day
Rat [7]; group: maternal, reproductive / offspring survival early / dead fetuses / dead fetuses + reproductive / offspring survival early / litter viability other / …
  NEL: 250 mg/kg/day
Rat [7]; group: maternal, reproductive / offspring survival early / litter viability other / litter viability
  LEL: 500 mg/kg/day
Rat [7]; [21]
  LOAEL: > 1500 mg/kg/day
  NOAEL: ≥ 1500 mg/kg/day
Rat [7]; [22]
  LEL: 500 mg/kg/day
  LOAEL: > 1500 mg/kg/day
  NEL: 250 mg/kg/day
  NOAEL: ≥ 1500 mg/kg/day
Rat [7]; [23]
  LOAEL: > 1500 mg/kg/day
  NEL: 500 mg/kg/day
  NOAEL: ≥ 1500 mg/kg/day
Rat [7]; group: parental, systemic / in life observation / body weight / body weight gain + systemic / pathology microscopic / stomach / hyperkeratosis
  LEL: 1000 mg/kg/day
Rat [8]; [24]
  LEL: 1200 mg/kg/day
  LOAEL: > 1200 mg/kg/day
  NEL: 500 mg/kg/day
  NOAEL: ≥ 1200 mg/kg/day
Rat [8]; [25]
  LEL: 1200 mg/kg/day
  LOAEL: > 1200 mg/kg/day
  NEL: 500 mg/kg/day
  NOAEL: ≥ 1200 mg/kg/day
